Measurements as given in patent US20190358214A1, “Compositions and Methods for Treating HCV Infection” (AbbVie Inc., priority 2016, published 2019).

How the values were obtained:
[1] = modeling translating dog study results to human liver pharmacokinetics; settings: modeled from dog study, once daily dosing
Protocol: (§1) This was believed to be attributed to the unique prodrug moiety in Compound 1, which is different from that in sofosbuvir. See paragraphs [0017]. [0018] and [0019] of U.S. patent application Ser. No. 15/254,342. In 4-day repeat dose dog liver biopsy study, Compound 1 dosed orally at 1 mg/kg delivered the similar liver triphosphate levels as sofosbuvir dosed orally at 5 mg/kg. Further modeling provided that 75 mg Compound 1 once daily dosing in human patients would match the liver triphosphate Cmax achieved by 400 mg sofosbuvir once daily dosing, that 80 mg Compound 1 once daily dosing in human patients would match the liver triphosphate AUC0-24 achieved by 400 mg sofosbuvir once daily dosing, and that 16 mg Compound 1 once daily dosing in human patients would maintain Cmin above GT1b polymerase EC50. The model that was used to translate dog study results to human liver pharmacokinetics was validated by sofosbuvir data.

[2] = 4-day repeat dose dog liver biopsy study; type: in vivo; settings: Compound 1 dosed orally at 1 mg/kg
Protocol: as §1

[3] = as described in Example 41 of U.S. patent application Ser. No. 15/254,342; cited from earlier work

Which “once daily dose in human patients that would maintain Cmin above GT1b polymerase EC50” value [1] does the source give for CCOC(=O)C(C)(C)N[P@](=O)(OC[C@H]1O[C@@H](n2ccc(=O)[nH]c2=O)[C@@](F)(Br)[C@@H]1O)Oc1ccccc1 [Compound 1] here?
Its value is 16 mg.

What about the “once daily dose in human patients that would match the liver triphosphate AUC0-24 achieved by 400 mg sofosbuvir once daily” value [1] of the same compound?
Its value is 80 mg.

And the “once daily dose in human patients that would match the liver triphosphate Cmax achieved by 400 mg sofosbuvir once daily” value [1]?
The value was 75 mg.

And the “liver triphosphate levels compared with sofosbuvir dosed orally at 5 mg/kg” value [2]?
The value was “similar”.

And the “active triphosphate profiles as compared to sofosbuvir” value [3]?
Its value is “significantly improved”.
